Test results reported in patent US20230234948A1, “CYCLOPROPYL DIHYDROQUINOLINE SULFONAMIDE COMPOUNDS” (AMGEN INC., priority 2020, published 2023).

Biological target: T1, Human NaV1.7 (Homo sapiens, UniProt Q15858)
T1 construct: expressed in transfected cells; host or cells: Spiking HEK cells (without Kir2.1 transfection)
Experiment: Ionworks Barracuda (IWB) automated patch clamp assay
Type: cell-based
Details: human NaV1.7 in HEK cells, population patch-clamp, state- and use-dependent voltage protocol; read-out: hNaV1.7 IWB-U IC50
Description: Ionworks Barracuda (IWB) Automated Patch Clamp Assay (Same Protocol for Both Human and Mouse)
Human NaV1.7 currents were recorded in population patch-clamp mode with the IWB automated electrophysiology system (Molecular Devices, LLC, Sunnyvale, Calif.). Spiking HEK cells (without Kir2.1 transfection) were cultured and prepared for recordings as previously described for IonWorks Quattro testing^1. The external solution consisted of the following (in mM): NaCl 140, KCl 5, CaCl2 2, MgCl2 1, HEPES 10, and glucose 11, pH 7.4, with N-methyl-D-glucamine at 320 mOsmol. […] From a holding potential of −110 mV, currents were elicited by a train of 26 depolarizations of 150 ms duration to −20 mV at a frequency of 5 Hz. Cells were then clamped to −20 mV for a period of 4 minutes in the presence of a single concentration of test compound. Following this compound incubation period, cells were clamped to −110 mV for three seconds to recover unbound channels and put through the same 26 pulse voltage protocol as above. Peak inward current during the 26th pulse to −20 mV in the presence of compound was divided by the peak inward current evoked by the 26th pulse to −20 mV in the absence of compound to determine percent inhibition. Concentration-response curves of percent inhibition as a function of concentration were generated to calculate IC50 values as described in Kornecook, T. J.; Yin, R.; Altmann, S.; et al. Pharmacologic Characterization of AMG8379, a Potent and Selective Small Molecule Sulfonamide Antagonist of the Voltage-Gated Sodium Channel NaV1. 7.
The potency of the compounds of the present invention were evaluated on human NaV1.7 channels using the above described IonWorks Barracuda automated electrophysiology platform that evaluates the ability of compounds to block sodium conductance through NaV1.7 channels. A voltage-protocol that prosecutes both state-dependent as well as use-dependent inhibition was used as these modes of action are thought to be more relevant for the native state of NaV1.7 channels in pain sensing neurons in vivo.

T1 sequence (Q15858 whole entry): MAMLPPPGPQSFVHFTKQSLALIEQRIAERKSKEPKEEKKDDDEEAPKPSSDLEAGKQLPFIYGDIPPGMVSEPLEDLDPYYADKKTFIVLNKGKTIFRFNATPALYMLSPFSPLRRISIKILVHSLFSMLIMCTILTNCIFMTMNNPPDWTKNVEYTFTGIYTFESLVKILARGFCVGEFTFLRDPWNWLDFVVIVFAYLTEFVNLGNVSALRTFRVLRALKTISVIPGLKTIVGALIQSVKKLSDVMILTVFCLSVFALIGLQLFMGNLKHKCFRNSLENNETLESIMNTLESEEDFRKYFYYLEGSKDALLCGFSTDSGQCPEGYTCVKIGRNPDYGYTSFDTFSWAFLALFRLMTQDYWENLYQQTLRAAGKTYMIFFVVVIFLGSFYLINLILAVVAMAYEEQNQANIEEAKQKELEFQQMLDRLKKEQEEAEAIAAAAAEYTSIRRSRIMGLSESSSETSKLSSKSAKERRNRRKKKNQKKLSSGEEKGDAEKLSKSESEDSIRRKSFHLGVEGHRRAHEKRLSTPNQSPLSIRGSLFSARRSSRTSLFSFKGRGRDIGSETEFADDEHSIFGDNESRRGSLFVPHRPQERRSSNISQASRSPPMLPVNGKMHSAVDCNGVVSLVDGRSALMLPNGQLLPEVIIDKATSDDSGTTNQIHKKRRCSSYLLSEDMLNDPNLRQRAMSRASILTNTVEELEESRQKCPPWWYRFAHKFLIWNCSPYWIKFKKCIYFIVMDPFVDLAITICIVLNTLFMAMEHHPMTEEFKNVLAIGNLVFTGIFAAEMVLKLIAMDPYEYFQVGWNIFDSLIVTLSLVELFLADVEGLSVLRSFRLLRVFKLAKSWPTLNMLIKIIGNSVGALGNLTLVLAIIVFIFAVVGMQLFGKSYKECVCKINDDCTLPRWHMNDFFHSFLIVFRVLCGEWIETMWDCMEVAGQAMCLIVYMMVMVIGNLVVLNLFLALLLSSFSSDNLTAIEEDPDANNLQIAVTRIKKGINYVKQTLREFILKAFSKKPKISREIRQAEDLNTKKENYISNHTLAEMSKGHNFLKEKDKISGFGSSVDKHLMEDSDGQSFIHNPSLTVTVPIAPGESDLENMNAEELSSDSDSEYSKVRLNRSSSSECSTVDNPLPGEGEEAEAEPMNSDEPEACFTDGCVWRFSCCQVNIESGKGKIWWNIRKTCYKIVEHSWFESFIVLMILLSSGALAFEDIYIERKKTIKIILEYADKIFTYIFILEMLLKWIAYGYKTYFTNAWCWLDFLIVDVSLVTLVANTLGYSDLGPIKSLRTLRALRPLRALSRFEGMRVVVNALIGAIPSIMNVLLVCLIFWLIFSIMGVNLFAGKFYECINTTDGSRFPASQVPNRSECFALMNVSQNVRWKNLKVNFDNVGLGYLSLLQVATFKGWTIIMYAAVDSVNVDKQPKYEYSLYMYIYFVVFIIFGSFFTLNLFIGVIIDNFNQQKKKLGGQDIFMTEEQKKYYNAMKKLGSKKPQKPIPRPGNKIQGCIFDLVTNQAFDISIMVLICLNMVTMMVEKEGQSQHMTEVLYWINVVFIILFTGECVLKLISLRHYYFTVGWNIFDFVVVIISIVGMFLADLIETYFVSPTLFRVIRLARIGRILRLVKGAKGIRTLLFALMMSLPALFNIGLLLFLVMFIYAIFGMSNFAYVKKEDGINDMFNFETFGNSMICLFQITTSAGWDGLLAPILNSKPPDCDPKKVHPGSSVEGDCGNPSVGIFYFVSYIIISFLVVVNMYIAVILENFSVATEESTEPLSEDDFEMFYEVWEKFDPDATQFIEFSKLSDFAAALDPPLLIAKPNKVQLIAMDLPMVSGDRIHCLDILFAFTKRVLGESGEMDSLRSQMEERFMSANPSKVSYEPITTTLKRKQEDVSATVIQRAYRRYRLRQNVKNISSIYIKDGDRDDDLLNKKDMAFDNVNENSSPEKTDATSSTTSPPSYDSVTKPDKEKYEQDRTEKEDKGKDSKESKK

Question: Which IC50 does the source give for `COc1cc([C@H]2C[C@@H]2C(F)(F)F)c(Cl)cc1-n1c(=O)ccc2cc(S(=O)(=O)Nc3ncccn3)ccc21` (atropisomer, axis not shown; (P)) [Example 12, (P)-1-(5-chloro-2-methoxy-4-((1S,2S)-2-(trifluoromethyl)cyclopropyl)phenyl)-2-oxo-N-(pyrimidin-2-yl)-1,2-dihydroquinoline-6-sulfonamide] here?
Answer: 17 nM

Question: With `COc1cc([C@@H]2C[C@H]2C)c(F)cc1-n1c(=O)ccc2cc(S(=O)(=O)Nc3ccon3)ccc21` (atropisomer, axis not shown; (P)) [Example 6, (P)-1-(5-fluoro-2-methoxy-4-((1R,2R)-2-methylcyclopropyl)phenyl)-N-(isoxazol-3-yl)-2-oxo-1,2-dihydroquinoline-6-sulfonamide] as the molecule, how does the IC50 read?
Answer: 20 nM

Question: How did the IC50 turn out when `COc1cc([C@H]2C[C@@H]2C(F)(F)F)c(C)cc1-n1c(=O)ccc2cc(S(=O)(=O)Nc3ccon3)ccc21` (single isomer, unassigned) [Example 27] was run?
Answer: 13 nM

Question: `COc1cc([C@@H]2C[C@H]2C(F)(F)F)c(C)cc1-n1c(=O)ccc2cc(S(=O)(=O)Nc3ncccn3)ccc21` (atropisomer, axis not shown; (P)) [Example 28, (P)-1-(2-methoxy-5-methyl-4-((1R,2R)-2-(trifluoromethyl)cyclopropyl)phenyl)-2-oxo-N-(pyrimidin-2-yl)-1,2-dihydroquinoline-6-sulfonamide] was tested. Which IC50 did it give?
Answer: 42 nM

Question: `COc1cc(C2(C(F)(F)F)CC2)c(F)cc1-n1c(=O)ccc2cc(S(=O)(=O)Nc3ccon3)ccc21` (single isomer, unassigned) [Example 43, (M)-1-(5-fluoro-2-methoxy-4-(1-(trifluoromethyl)cyclopropyl)phenyl)-N-(isoxazol-3-yl)-2-oxo-1,2-dihydroquinoline-6-sulfonamide] was tested. Which IC50 did it give?
Answer: 1630 nM

Question: For `COc1cc([C@@H]2C[C@H]2C(F)(F)F)c(Cl)cc1-n1c(=O)ccc2cc(S(=O)(=O)Nc3ncccn3)ccc21` (atropisomer, axis not shown; (P)) [Example 13, (P)-1-(5-chloro-2-methoxy-4-((1R,2R)-2-(trifluoromethyl)cyclopropyl)phenyl)-2-oxo-N-(pyrimidin-2-yl)-1,2-dihydroquinoline-6-sulfonamide], which IC50 is on record?
Answer: 12 nM

Question: `COc1cc([C@@H]2C[C@H]2C(F)(F)F)c(F)cc1-n1c(=O)ccc2cc(S(=O)(=O)Nc3ncco3)ccc21` (atropisomer, axis not shown; (P)) [Example 35, (P)-1-(5-fluoro-2-methoxy-4-((1R,2R)-2-(trifluoromethyl)cyclopropyl)phenyl)-N-(oxazol-2-yl)-2-oxo-1,2-dihydroquinoline-6-sulfonamide] was tested. Which IC50 did it give?
Answer: 11 nM

Question: For `COc1cc([C@@H]2C[C@H]2C(F)(F)F)c(Cl)cc1-n1c(=O)ccc2cc(S(=O)(=O)Nc3ccon3)ccc21` (atropisomer, axis not shown; (P)) [Example 18, (P)-1-(5-chloro-2-methoxy-4-((1R,2R)-2-(trifluoromethyl)cyclopropyl)phenyl)-N-(isoxazol-3-yl)-2-oxo-1,2-dihydroquinoline-6-sulfonamide], which IC50 is on record?
Answer: 7 nM

Question: Which IC50 does the source give for `COc1cc(C2(C(F)(F)F)CC2)c(F)cc1-n1c(=O)ccc2cc(S(=O)(=O)Nc3ccon3)ccc21` (single isomer, unassigned) [Example 42, (P)-1-(5-fluoro-2-methoxy-4-(1-(trifluoromethyl)cyclopropyl)phenyl)-N-(isoxazol-3-yl)-2-oxo-1,2-dihydroquinoline-6-sulfonamide] here?
Answer: 20 nM

Question: `COc1cc([C@@H]2C[C@H]2C(F)(F)F)c(F)cc1-n1c(=O)cc(F)c2cc(S(=O)(=O)Nc3ccon3)ccc21` (atropisomer, axis not shown; (P)) [Example 44, (P)-4-fluoro-1-(5-fluoro-2-methoxy-4-((1R,2R)-2-(trifluoromethyl)cyclopropyl)phenyl)-N-(isoxazol-3-yl)-2-oxo-1,2-dihydroquinoline-6-sulfonamide] was tested. Which IC50 did it give?
Answer: 5 nM

Question: With `COc1cc([C@@H]2C[C@H]2c2ccccc2)c(F)cc1-n1c(=O)ccc2cc(S(=O)(=O)Nc3ccon3)ccc21` (atropisomer, axis not shown; (P)) [Example 8, (P)-1-(5-fluoro-2-methoxy-4-((1R,2R)-2-phenylcyclopropyl)phenyl)-N-(isoxazol-3-yl)-2-oxo-1,2-dihydroquinoline-6-sulfonamide] as the molecule, how does the IC50 read?
Answer: 8 nM

Question: How did the IC50 turn out when `COc1cc([C@H]2C[C@@H]2C(F)(F)F)c(F)cc1-n1c(=O)ccc2cc(S(=O)(=O)Nc3cccnn3)ccc21` (atropisomer, axis not shown; (P)) [Example 17, (P)-1-(5-fluoro-2-methoxy-4-((1S,2S)-2-(trifluoromethyl)cyclopropyl)phenyl)-2-oxo-N-(pyridazin-3-yl)-1,2-dihydroquinoline-6-sulfonamide] was run?
Answer: 16 nM

Question: How did the IC50 turn out when `COc1cc([C@@H]2C[C@H]2C(F)(F)F)c(F)cc1-n1c(=O)ccc2cc(S(=O)(=O)Nc3ncccn3)ccc21` (atropisomer, axis not shown; (P)) [Example 20, (P)-1-(5-fluoro-2-methoxy-4-((1R,2R)-2-(trifluoromethyl)cyclopropyl)phenyl)-2-oxo-N-(pyrimidin-2-yl)-1,2-dihydroquinoline-6-sulfonamide] was run?
Answer: 24 nM

Question: With `COc1cc([C@H]2C[C@@H]2C(F)(F)F)c(C#N)cc1-n1c(=O)ccc2cc(S(=O)(=O)Nc3ccon3)ccc21` (atropisomer, axis not shown; (P)) [Example 37, (P)-1-(5-cyano-2-methoxy-4-((1S,2S)-2-(trifluoromethyl)cyclopropyl)phenyl)-N-(isoxazol-3-yl)-2-oxo-1,2-dihydroquinoline-6-sulfonamide] as the molecule, how does the IC50 read?
Answer: 7 nM

Question: `COc1cc([C@H]2C[C@@H]2C2CC2)c(F)cc1-n1c(=O)ccc2cc(S(=O)(=O)Nc3ccon3)ccc21` (atropisomer, axis not shown; (P)) [Example 31, (P)-1-(4-((1R,2S)-[1,1′-bi(cyclopropan)]-2-yl)-5-fluoro-2-methoxyphenyl)-N-(isoxazol-3-yl)-2-oxo-1,2-dihydroquinoline-6-sulfonamide] was tested. Which IC50 did it give?
Answer: 9 nM

Question: How did the IC50 turn out when `COc1cc([C@H]2C[C@@H]2C(F)(F)F)c(F)cc1-n1c(=O)ccc2cc(S(=O)(=O)Nc3ncco3)ccc21` (atropisomer, axis not shown; (P)) [Example 36, (P)-1-(5-fluoro-2-methoxy-4-((1S,2S)-2-(trifluoromethyl)cyclopropyl)phenyl)-N-(oxazol-2-yl)-2-oxo-1,2-dihydroquinoline-6-sulfonamide] was run?
Answer: 6 nM

Question: Which IC50 does the source give for `COc1cc([C@H]2C[C@@H]2c2ccccc2)c(F)cc1-n1c(=O)ccc2cc(S(=O)(=O)Nc3ccon3)ccc21` (atropisomer, axis not shown; (P)) [Example 9, (P)-1-(5-fluoro-2-methoxy-4-((1S,2S)-2-phenylcyclopropyl)phenyl)-N-(isoxazol-3-yl)-2-oxo-1,2-dihydroquinoline-6-sulfonamide] here?
Answer: 4 nM

Question: `COc1cc([C@H]2C[C@@H]2C)c(F)cc1-n1c(=O)ccc2cc(S(=O)(=O)Nc3ccon3)ccc21` (atropisomer, axis not shown; (P)) [Example 7, (P)-1-(5-fluoro-2-methoxy-4-((1S,2S)-2-methylcyclopropyl)phenyl)-N-(isoxazol-3-yl)-2-oxo-1,2-dihydroquinoline-6-sulfonamide] was tested. Which IC50 did it give?
Answer: 16 nM

Question: How did the IC50 turn out when `COc1cc([C@H]2C[C@@H]2C(F)(F)F)c(Cl)cc1-n1c(=O)ccc2cc(S(=O)(=O)Nc3cccnn3)ccc21` (single isomer, unassigned) [Example 15] was run?
Answer: 14 nM

Question: Which IC50 does the source give for `COc1cc(C2(C(F)(F)F)CC2)c(F)cc1-n1c(=O)ccc2cc(S(=O)(=O)Nc3ncccn3)ccc21` (atropisomer, axis not shown; (P)) [Example 23, (P)-1-(5-fluoro-2-methoxy-4-(1-(trifluoromethyl)cyclopropyl)phenyl)-2-oxo-N-(pyrimidin-2-yl)-1,2-dihydroquinoline-6-sulfonamide] here?
Answer: 16 nM

Question: With `COc1cc([C@@H]2C[C@H]2C(F)(F)F)c(F)cc1-n1c(=O)ccc2cc(S(=O)(=O)Nc3ccon3)ccc21` (atropisomer, axis not shown; (P)) [Example 5, (P)-1-(5-fluoro-2-methoxy-4-((1R,2R)-2-(trifluoromethyl)cyclopropyl)phenyl)-N-(isoxazol-3-yl)-2-oxo-1,2-dihydroquinoline-6-sulfonamide] as the molecule, how does the IC50 read?
Answer: 9 nM

Question: Which IC50 does the source give for `COc1cc([C@H]2C[C@@H]2C(F)(F)F)c(F)cc1-n1c(=O)ccc2cc(S(=O)(=O)Nc3ccon3)c(F)cc21` (single isomer, unassigned) [Example 46] here?
Answer: 11 nM

Question: With `COc1cc([C@H]2C[C@@H]2C(F)(F)F)c(C)cc1-n1c(=O)ccc2cc(S(=O)(=O)Nc3ncccn3)ccc21` (atropisomer, axis not shown; (P)) [Example 29, (P)-1-(2-methoxy-5-methyl-4-((1S,2S)-2-(trifluoromethyl)cyclopropyl)phenyl)-2-oxo-N-(pyrimidin-2-yl)-1,2-dihydroquinoline-6-sulfonamide] as the molecule, how does the IC50 read?
Answer: 32 nM
